Reference: patent US8022206B2 (OSI Pharmaceuticals, LLC, priority 2008, dated 2011)

How the values were obtained:
MET (human) = MET (human) (Homo sapiens, UniProt P08581); assay: MET (human) AlphaScreen kinase assay, Km of ATP; type: biochemical; conditions: AlphaScreen, Km of ATP; read-out: Met biochemical IC50
Summary of the method: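 Human MET at lot-optimised concentration in 50 mM Tris pH 7.4 buffer with 1 mM DTT, compound at 1% DMSO final; enzyme starts the reaction, 60 min at RT.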

RON (human) = RON (human) (Homo sapiens, UniProt Q04912); assay: RON (human) AlphaScreen kinase assay, Km of ATP; type: biochemical; conditions: AlphaScreen, Km of ATP; read-out: RON biochemical IC50
Sequence of RON (human) (Q04912 25-1400): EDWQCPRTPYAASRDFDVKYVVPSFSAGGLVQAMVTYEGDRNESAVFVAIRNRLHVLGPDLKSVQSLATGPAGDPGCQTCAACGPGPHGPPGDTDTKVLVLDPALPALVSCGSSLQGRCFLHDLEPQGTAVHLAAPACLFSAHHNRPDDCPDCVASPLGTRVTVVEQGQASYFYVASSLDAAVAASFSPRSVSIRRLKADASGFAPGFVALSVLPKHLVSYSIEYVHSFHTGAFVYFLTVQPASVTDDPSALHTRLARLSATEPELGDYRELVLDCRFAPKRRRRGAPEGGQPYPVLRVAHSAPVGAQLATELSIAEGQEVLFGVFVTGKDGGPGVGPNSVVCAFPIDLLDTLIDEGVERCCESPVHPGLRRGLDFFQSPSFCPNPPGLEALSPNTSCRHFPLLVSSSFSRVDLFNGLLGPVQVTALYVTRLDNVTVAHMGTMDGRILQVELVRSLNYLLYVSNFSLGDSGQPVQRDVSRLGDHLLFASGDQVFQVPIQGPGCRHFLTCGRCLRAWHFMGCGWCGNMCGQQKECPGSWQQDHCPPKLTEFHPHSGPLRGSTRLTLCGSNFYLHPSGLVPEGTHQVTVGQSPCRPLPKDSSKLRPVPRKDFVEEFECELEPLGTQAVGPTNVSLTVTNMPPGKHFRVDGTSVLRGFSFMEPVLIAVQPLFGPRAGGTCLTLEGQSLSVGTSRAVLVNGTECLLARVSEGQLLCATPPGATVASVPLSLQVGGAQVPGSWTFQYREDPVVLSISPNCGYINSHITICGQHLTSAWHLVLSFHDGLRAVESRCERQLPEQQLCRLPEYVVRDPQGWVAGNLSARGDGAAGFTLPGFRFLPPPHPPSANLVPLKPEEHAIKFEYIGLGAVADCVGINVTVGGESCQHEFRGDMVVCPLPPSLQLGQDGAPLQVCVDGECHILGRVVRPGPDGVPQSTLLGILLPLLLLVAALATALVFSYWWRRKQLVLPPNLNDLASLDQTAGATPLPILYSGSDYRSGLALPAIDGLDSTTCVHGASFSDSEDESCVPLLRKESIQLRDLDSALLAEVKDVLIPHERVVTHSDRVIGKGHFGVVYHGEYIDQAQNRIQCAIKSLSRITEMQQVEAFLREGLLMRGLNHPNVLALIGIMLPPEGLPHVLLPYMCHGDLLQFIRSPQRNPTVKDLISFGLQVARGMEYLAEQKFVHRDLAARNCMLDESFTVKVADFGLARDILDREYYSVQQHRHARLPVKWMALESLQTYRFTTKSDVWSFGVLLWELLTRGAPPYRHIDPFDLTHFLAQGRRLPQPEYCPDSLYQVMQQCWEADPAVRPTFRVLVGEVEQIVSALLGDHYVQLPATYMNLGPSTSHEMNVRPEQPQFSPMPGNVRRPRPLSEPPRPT
Summary of the method: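 Reaction was started with enzyme and run 30 min at RT. PT66 donor/acceptor beads in an EDTA-containing Tris pH 7.5 buffer were then added, and the signal was read after 1 h.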

Sequence of MET (human) (P08581 25-1390): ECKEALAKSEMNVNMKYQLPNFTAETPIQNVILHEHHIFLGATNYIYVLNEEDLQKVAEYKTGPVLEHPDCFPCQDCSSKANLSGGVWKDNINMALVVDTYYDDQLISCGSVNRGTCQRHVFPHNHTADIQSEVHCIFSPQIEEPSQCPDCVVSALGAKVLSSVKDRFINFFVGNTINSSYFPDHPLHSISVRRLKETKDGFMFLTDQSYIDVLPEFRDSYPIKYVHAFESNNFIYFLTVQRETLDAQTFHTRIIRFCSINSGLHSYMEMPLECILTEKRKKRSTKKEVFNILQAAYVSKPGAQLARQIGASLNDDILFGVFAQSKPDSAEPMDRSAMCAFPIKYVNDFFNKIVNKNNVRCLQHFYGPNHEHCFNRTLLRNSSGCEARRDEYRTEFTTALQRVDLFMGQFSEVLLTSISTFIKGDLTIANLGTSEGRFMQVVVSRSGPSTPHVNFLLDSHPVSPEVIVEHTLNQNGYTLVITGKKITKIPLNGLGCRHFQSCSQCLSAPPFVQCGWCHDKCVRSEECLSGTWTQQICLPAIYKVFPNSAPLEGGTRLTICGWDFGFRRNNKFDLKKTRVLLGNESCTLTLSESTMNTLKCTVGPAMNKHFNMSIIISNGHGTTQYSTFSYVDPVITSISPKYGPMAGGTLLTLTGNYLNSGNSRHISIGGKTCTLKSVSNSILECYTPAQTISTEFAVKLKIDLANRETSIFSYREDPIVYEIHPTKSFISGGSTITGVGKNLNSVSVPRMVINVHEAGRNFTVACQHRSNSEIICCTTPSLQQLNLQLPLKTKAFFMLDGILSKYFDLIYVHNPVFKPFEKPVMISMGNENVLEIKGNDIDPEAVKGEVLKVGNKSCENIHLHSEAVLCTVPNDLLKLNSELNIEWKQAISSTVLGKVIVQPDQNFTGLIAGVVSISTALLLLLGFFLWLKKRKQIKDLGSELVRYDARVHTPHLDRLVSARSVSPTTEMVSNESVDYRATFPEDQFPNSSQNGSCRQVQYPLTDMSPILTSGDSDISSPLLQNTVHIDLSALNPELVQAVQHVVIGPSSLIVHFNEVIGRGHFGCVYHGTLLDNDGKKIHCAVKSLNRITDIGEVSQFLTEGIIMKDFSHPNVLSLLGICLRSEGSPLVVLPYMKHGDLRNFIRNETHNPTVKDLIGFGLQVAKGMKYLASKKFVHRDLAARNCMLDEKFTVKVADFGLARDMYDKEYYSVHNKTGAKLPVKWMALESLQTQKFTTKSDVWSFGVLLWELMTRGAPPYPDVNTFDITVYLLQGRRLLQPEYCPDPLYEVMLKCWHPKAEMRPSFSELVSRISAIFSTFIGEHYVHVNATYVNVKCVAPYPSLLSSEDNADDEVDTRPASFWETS

| Compound | IC50 (MET (human)) [nM] | IC50 (RON (human)) [nM] |
| --- | --- | --- |
| CCS(=O)(=O)N1CC=C(c2coc3c(O[C@H](C)c4c(Cl)ccc(F)c4Cl)c(N)ncc23)CC1 [Example 47, 7-[(R)-1-(2,6-Dichloro-3-fluorophenyl)-ethoxy]-3-(1-ethanesulfonyl-1,2,3,6-tetrahydropyridin-4-yl)-furo[3,2-c]pyridin-6-ylamine] | 500 to 5000 | 500 to 5000 |
| C[C@@H](Oc1c(N)ncc2c(-c3ccc(C(=O)NCCN4CCOCC4)cc3)coc12)c1c(Cl)ccc(F)c1Cl [Example 100, 4-{6-Amino-7-[(R)-1-(2,6-dichloro-3-fluorophenyl)ethoxy]-furo[3,2-c]pyridin-3-yl}-N-(2-morpholin-4-ylethyl)benzamide] | 500 to 5000 | 500 to 5000 |
| C[C@@H](Oc1c(N)ncc2c(C3=CCN(C4CNC4)CC3)coc12)c1c(Cl)ccc(F)c1Cl [Example 322, 3-(1-Azetidin-3-yl-1,2,3,6-tetrahydropyridin-4-yl)-7-[(R)-1-(2,6-dichloro-3-fluorophenyl)ethoxy]furo[3,2-c]pyridin-6-ylamine] | < 500 | < 500 |
| CCNC(=O)N1CCC(n2cc(-c3coc4c(O[C@H](C)c5c(Cl)ccc(F)c5Cl)c(N)ncc34)cn2)CC1 [Example 273, 4-(4-{6-Amino-7-[(1R)-1-(2,6-dichloro-3-fluorophenyl)ethoxy]furo[3,2-c]pyridin-3-yl}-1H-pyrazol-1-yl)-N-ethylpiperidine-1-carboxamide] | 500 to 5000 | 500 to 5000 |
| CCS(=O)(=O)Nc1cccc(-c2coc3c(O[C@H](C)c4c(Cl)ccc(F)c4Cl)c(N)ncc23)c1 [Example 245, Ethanesulfonic acid (3-{6-amino-7-[(R)-1-(2,6-dichloro-3-fluorophenyl)ethoxy]-furo[3,2-c]pyridin-3-yl}phenyl)amide] | 500 to 5000 | 500 to 5000 |
| CC(Oc1c(N)ncc2c(-c3cnn(C4CCNCC4)c3)coc12)c1cccc(-c2ccn[nH]2)c1 (stereo not drawn) [Example 446] | 500 to 5000 | < 500 |
| CC(=O)c1ccc(-c2coc3c(O[C@H](C)c4c(Cl)ccc(F)c4Cl)c(N)ncc23)s1 [Example 114, 1-(5-{6-Amino-7-[(R)-1-(2,6-dichloro-3-fluorophenyl)ethoxy]furo[3,2-c]pyridin-3-yl}thiophen-2-yl)ethanone] | 500 to 5000 | 500 to 5000 |
| C[C@@H](Oc1c(N)ncc2c(C(=O)NCC3CCOCC3)coc12)c1c(Cl)ccc(F)c1Cl [Example 187, 6-Amino-7-[(R)-1-(2,6-dichloro-3-fluorophenyl)ethoxy]furo[3,2-c]pyridine-3-carboxylic acid (tetrahydropyran-4-ylmethyl)amide] | 500 to 5000 | 500 to 5000 |
| CC(Oc1c(N)ncc2c(-c3cnn(C4CCNCC4)c3)coc12)c1cc(F)cc(-c2ccccc2)c1 (stereo not drawn) [Example 449, 7-[1-(5-Fluorobiphenyl-3-yl)ethoxy]-3-(1-piperidin-4-yl-1H-pyrazol-4-yl)furo[3,2-c]pyridin-6-ylamine] | 500 to 5000 | 500 to 5000 |

Continued, values first:

| IC50 (MET (human)) [nM] | IC50 (RON (human)) [nM] | Compound |
| --- | --- | --- |
| 500 to 5000 | 500 to 5000 | C[C@@H](Oc1c(N)ncc2c(-c3cnn(C4CCNCC4)c3)c(-c3ccccc3)oc12)c1c(Cl)ccc(F)c1Cl [Example 170, 7-[(R)-1-(2,6-Dichloro-3-fluorophenyl)ethoxy]-2-phenyl-3-(1-piperidin-4-yl-1H-pyrazol-4-yl)-furo[3,2-c]pyridin-6-ylamine] |
| < 500 | 500 to 5000 | C[C@@H](Oc1c(N)ncc2c(C3=CCN(S(=O)(=O)C4CC4)CC3)coc12)c1c(Cl)ccc(F)c1Cl [Example 48, 3-(1-Cyclopropanesulfonyl-1,2,3,6-tetrahydropyridin-4-yl)-7-[(R)-1-(2,6-dichloro-3-fluorophenyl)-ethoxy]-furo[3,2-c]pyridin-6-ylamine] |
| < 500 | < 500 | C[C@@H](Oc1c(N)ncc2c(-c3ccc(C(=O)N4CCCN(C)CC4)cc3)coc12)c1c(Cl)ccc(F)c1Cl [Example 293, (4-{6-Amino-7-[(R)-1-(2,6-dichloro-3-fluorophenyl)ethoxy]furo[3,2-c]pyridin-3-yl}phenyl)-(4-methyl-[1,4]diazepan-1-yl)methanone] |
| < 500 | < 500 | CC(Oc1c(N)ncc2c(-c3cnn(C4CCNCC4)c3)coc12)c1c(Cl)c(F)cc(OCCCN(C)C)c1Cl (stereo not drawn) [Example 156, 7-(1-{2,6-Dichloro-3-[3-(dimethylamino)propoxy]-5-fluorophenyl}ethoxy)-3-[1-(piperidin-4-yl)-1H-pyrazol-4-yl]furo[3,2-c]pyridin-6-amine] |
| < 500 | < 500 | C[C@@H](Oc1c(N)ncc2c(-c3csc(CN4CCC4)c3)coc12)c1c(Cl)ccc(F)c1Cl [Example 309, 3-(5-Azetidin-1-ylmethylthiophen-3-yl)-7-[(R)-1-(2,6-dichloro-3-fluorophenyl)ethoxy]furo[3,2-c]pyridin-6-ylamine] |
| < 500 | < 500 | CC(Cc1ccccc1Br)Oc1c(N)ncc2c(-c3cnn(C4CCNCC4)c3)coc12 (stereo not drawn) [Example 436, 7-[2-(2-Bromophenyl)-1-methylethoxy]-3-(1-piperidin-4-yl-1H-pyrazol-4-yl)furo[3,2-c]pyridin-6-ylamine] |
| < 500 | 500 to 5000 | C[C@@H](Oc1c(N)ncc2c(C3=CCN(Cc4ccccc4)CC3)coc12)c1c(Cl)ccc(F)c1Cl [Example 39, 3-(1-Benzyl-1,2,3,6-tetrahydropyridin-4-yl)-7-[(R)-1-(2,6-dichloro-3-fluorophenyl)-ethoxy]-furo[3,2-c]pyridin-6-ylamine] |
| < 500 | < 500 | C[C@@H](Oc1c(N)ncc2c(-c3ccc(C(=O)NCCN(C)C)cc3)coc12)c1c(Cl)ccc(F)c1Cl [Example 71, 4-{6-Amino-7-[(R)-1-(2,6-dichloro-3-fluorophenyl)ethoxy]-furo[3,2-c]pyridin-3-yl}-N-(2-dimethylaminoethyl)benzamide] |
| < 500 | < 500 | C[C@@H](Oc1c(N)ncc2c(C3=CCN(C(=O)[C@H](N)CO)CC3)coc12)c1c(Cl)ccc(F)c1Cl [Example 255, (2R)-2-Amino-1-[4-{6-amino-7-[(1R)-1-(2,6-dichloro-3-fluoro-phenyl)ethoxy]furo[3,2-c]pyridin-3-yl}-3,6-dihydropyridin-1(2H)-yl]-3-hydroxypropan-1-one] |
| < 500 | < 500 | CC(Oc1c(N)ncc2c(-c3cnn(C4CCNCC4)c3)coc12)c1ccc(Cl)c(F)c1 (stereo not drawn) [Example 381, 7-[1-(4-Chloro-3-fluorophenyl)ethoxy]-3-(1-piperidin-4-yl-1H-pyrazol-4-yl)furo[3,2-c]pyridin-6-ylamine] |
| < 500 | < 500 | C[C@@H]1CN(C(=O)N2CC=C(c3coc4c(O[C@H](C)c5c(Cl)ccc(F)c5Cl)c(N)ncc34)CC2)C[C@H](C)N1C (relative stereo) [Example 221, (4-{6-Amino-7-[(R)-1-(2,6-dichloro-3-fluorophenyl)ethoxy]-furo[3,2-c]pyridin-3-yl}-3,6-dihydro-2H-pyridin-1-yl)-((3R*,5S*)-3,4,5-trimethylpiperazin-1-yl)-methanone] |
| < 500 | 500 to 5000 | C[C@@H](Oc1c(N)ncc2c(-c3ccc(NS(C)(=O)=O)cc3)coc12)c1c(Cl)ccc(F)c1Cl [Example 76, N-(4-{6-Amino-7-[(R)-1-(2,6-dichloro-3-fluorophenyl)ethoxy]-furo[3,2-c]pyridin-3-yl}phenyl)methanesulfonamide] |
